Measurements as given in patent US8273712B2, “Promoting wound healing by administering a prostaglandin E and granulocyte-macrophage colony stimulating factor” (Medical Research Council, priority 2005, dated 2012).

How the values were obtained:
[1] = system: Male Sprague Dawley rats, 2 cm circular dorsal wounds; experiment: Rat model of wound healing; assay type: in vivo; details: for Wound area relative to control (significance, in words): day 3 post surgery; for Wound colour observations relative to control: days 3-5; for Consistent brown wound colour scores: days 9 and 10, red indicates a less healed wound than brown
Experimental: Male Sprague Dawley rats weighing between 250-300 grams were used as a wound healing model to assess the effects of PGE and GMCSF. 6 rats per treatment group were analysed to provide adequate data for statistical comparisons between control and treated groups. A total of 24 animals were used (4 groups of 6 rats). The four groups were control, 16,16-dimethyl PGE, GMCSF, and 16,16-dimethyl PGE+GMCSF groups. […] Two wounds were created on each animal, resulting in an “n” of 12 wounds per group.
Following acclimatisation (5-6 days), the rats were given a subcutaneous injection of Glycopyrolate (0.01 mg/kg at 0.02 mg/mL), dose volume 0.5 mL/kg, and anesthetised with an intraperitoneal injection of a Ketamine (40 mg/kg)/Xylazine (5 mg/kg) cocktail at 45 mg/mL (ket) and 5 mg/mL (xy), dose volume 0.88 mL/kg. Adequate depth of anesthesia was assessed by a toe pinch prior to beginning surgery, such that if any movement was noted, the animals were given more anaesthesia. […] Once anesthesia was accomplished, a 6×8 cm area was shaved in the dorsal area. Following shaving, a depilatory agent (Nair) was applied to the shaved area, and allowed to remain on the skin for approximately 5 minutes. After this time, the Nair was gently scraped from the skin with a blunt spatula and any residue was removed by rinsing the skin with deionised, distilled water and wiping with gauze sponges. The shaved area was then surgically prepared with chlorhexidine and alcohol scrub.
The rat was then placed on its abdomen and positioned in such a way that the limbs were relaxed and the spine was straight. […] The inside margins of the T were traced with a Sharpie pen, such that as upside-down “L” appeared on the right side of the rat and an upside-down and backward “L” appeared on the left side of the animal. These designated the cranial border of each wound, approximately 3 cm caudal to the scapular angles, and the medial border of each wound, approximately 0.25 cm from the midline.
To make the wound template, the rim of a cap from a Corning 15 ml conical tube was placed on the area and traced using a sterile surgical marker creating a 2 cm circle within one of the upside-down L's described above. An initial incision was made with a #10 scalpel blade at the medial edge of each circle. The incision was made through the panniculus carnosus into the areolar layer of the subcutaneous loose connective tissue. The excision was continued around the entire perimeter of the circle using forceps and Metzenbaum curved scissors while taking care to avoid damaging the deep fescial layers. The skin was removed to leave a circular wound. Where necessary, hemostasis was achieved by even compression with a sterile gauze pad.
The test agent or vehicle control, was administered at three different sites under the wound bed. Group assignments and dose levels for each treatment were as detailed in Table 8. Dose levels were based on body weight.
The wounds were not covered with any type of dressing. Approximately 30 minutes after recovery (determined by sternal recumbency and normal movement) the animals were given a subcutaneous injection of Buprenorphine (0.1 mg/kg) and transferred to individual cages with elevated stainless steel floors. Additional Buprenorphine was given every 6-8 hours as needed, then for the following 72 hours, 0.05 mg/kg was administered every 6-12 hours as needed.
Animals were anesthetised with isoflurane on days 3, 7, and 10 following surgery and the wounds were measured by caliper for width and length. The width and length measurements were then multiplied to calculate wound area and the mean wound area and standard error of the mean for each treatment determined. To test for any significant difference in wound healing relative to control treatment, a two-way analysis of variance (ANOVA) test was performed on the mean wound areas. In addition to wound area, wound healing was evaluated daily by observing wound colour. […]

PGE receptors = details: cited from earlier work
[2] = molecular target: T1, 15-hydroxy prostaglandin dehydrogenase (Homo sapiens, UniProt P15428); details: cited from earlier work
T1 sequence (P15428 1-266): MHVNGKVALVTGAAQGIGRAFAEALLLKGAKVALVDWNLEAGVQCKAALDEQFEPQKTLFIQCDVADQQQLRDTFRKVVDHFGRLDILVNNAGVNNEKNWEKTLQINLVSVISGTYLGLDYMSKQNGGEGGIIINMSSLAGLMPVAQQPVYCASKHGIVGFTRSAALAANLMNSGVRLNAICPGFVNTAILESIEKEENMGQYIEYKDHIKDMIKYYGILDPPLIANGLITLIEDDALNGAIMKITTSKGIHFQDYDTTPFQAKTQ

ML1 cells = experiment: ELISA for measuring cytokine release; assay type: cell-based, human; details: monocyte
Experimental: Medium was removed from cells and analysed by ELISA. A monoclonal capture antibody was coated onto 96 well plates and culture medium was added each well. A standard curve was created with recombinant protein. After incubation and washing, a biotin-labelled monoclonal antibody was added. Following further incubation and washing, peroxidase-labelled streptavidin was added. After washing, a tetramethyl benzidine substrate was added and colour developed in proportion to the concentration of the cytokine in the original sample/standard. Colour was read using a plate photometer (Labsystems, Multiskan).
Paired antibodies and recombinant standards for CD14, CXCL8 (IL-8), and CCL2 (MCP-1) were obtained from R&D Systems Ltd, Abingdon UK and antibodies for IL-10 were obtained from Pharmingen (BD Bioscience, Erembodegem, Belgium), as shown below in Table 1.

[3] = Day 3 post surgery, PGE analog 400 μg/kg and/or GMCSF 25 μg/kg per site under the wound bed
[4] = Day 7 post surgery, PGE analog 400 μg/kg and/or GMCSF 25 μg/kg per site
[5] = Day 10 post surgery, PGE analog 400 μg/kg and/or GMCSF 25 μg/kg per site

For GMCSF, the “Difference in wound area relative to control” value ([1]; Day 3) was −15.50, the Mean wound area [1, 3] was 424.2 mm^2 and the “Difference in wound area relative to control” value ([1]; Day 7) was −18.63. The Mean wound area [1, 4] was 248.0 mm^2, the “Difference in wound area relative to control” value ([1]; Day 10) was 8.761 and the Mean wound area [1, 5] was 153.0 mm^2. For the same compound, the “Wound area relative to control (significance, in words)” value [1] was “No significant difference”, the “Wound colour observations relative to control” value [1] was “more consistent brown scores relative to the control treatment” and the “Consistent brown wound colour scores” value [1] was 3.
For 16,16-dimethyl PGE [PGE analog], the “Activation of PGE receptors” value (PGE receptors) is given as “activate all known PGE receptors”, the “Difference in wound area relative to control” value ([1]; Day 3) is given as −52.21 and the Mean wound area [1, 3] is given as 387.5 mm^2. The “Difference in wound area relative to control” value ([1]; Day 7) was −11.29, the Mean wound area [1, 4] was 255.4 mm^2 and the “Difference in wound area relative to control” value ([1]; Day 10) was −9.185. The Mean wound area [1, 5] was 135.1 mm^2, the “Wound area relative to control (significance, in words)” value [1] was “No significant difference” and the “Wound colour observations relative to control” value [1] was “more consistent brown scores relative to the control treatment”. The “Consistent brown wound colour scores” value [1] was 2 and the “Resistance to the main catabolic enzyme 15-hydroxy prostaglandin dehydrogenase” value [2] was “resistant”.
In the case of `COc1ccc(C2CNC(=O)C2)cc1OC1CCCC1` (stereo not drawn) [rolipram], the “IL-8 release induced by PGE and GMCSF” value (ML1 cells) is reported as “enhance IL-8 release”.
